Measured values from ChEMBL document CHEMBL5724914, “Linking interpersonal differences in gut microbiota composition and drug biotransformation activity” (2024).

Experiments:
[1] = The drug is tested on WLS-052 corresponding to human gut metagenome with ENA study accession number: PRJEB37062 and ENA sample accession number: ERS12561747 for biotransformation under anaerobic condition. The drug concentrations were measured over 9 timepoints collected between 0 and 24 hours of incubation by liquid-chromatography-coupled mass spectrometry (LC–MS); details: 2 µM
[2] = human gut metagenome, 24 h, 2 µM
[3] = The drug is tested on Z-001 corresponding to mouse gut metagenome with ENA study accession number: PRJEB37062 and ENA sample accession number: ERS12561801 for biotransformation under anaerobic condition. The drug concentrations were measured over 9 timepoints collected between 0 and 24 hours of incubation by liquid-chromatography-coupled mass spectrometry (LC–MS); details: 2 µM
[4] = The drug is tested on WLS-350 corresponding to human gut metagenome with ENA study accession number: PRJEB37062 and ENA sample accession number: ERS12561789 for biotransformation under anaerobic condition. The drug concentrations were measured over 9 timepoints collected between 0 and 24 hours of incubation by liquid-chromatography-coupled mass spectrometry (LC–MS); details: 2 µM
[5] = human gut metagenome, 24 h, 2 µM; remark: listed apart in the source
[6] = The drug is tested on WLS-073 corresponding to human gut metagenome with ENA study accession number: PRJEB37062 and ENA sample accession number: ERS12561749 for biotransformation under anaerobic condition. The drug concentrations were measured over 9 timepoints collected between 0 and 24 hours of incubation by liquid-chromatography-coupled mass spectrometry (LC–MS); details: 2 µM
[7] = The drug is tested on Z-009 corresponding to pig gut metagenome with ENA study accession number: PRJEB37062 and ENA sample accession number: ERS12561809 for biotransformation under anaerobic condition. The drug concentrations were measured over 9 timepoints collected between 0 and 24 hours of incubation by liquid-chromatography-coupled mass spectrometry (LC–MS); details: 2 µM
[8] = human gut metagenome, 24 h, 2 µM; remark: listed apart in the source
[9] = human gut metagenome, 24 h, 2 µM; remark: listed apart in the source
[10] = The drug is tested on WLS-220 corresponding to human gut metagenome with ENA study accession number: PRJEB37062 and ENA sample accession number: ERS12561769 for biotransformation under anaerobic condition. The drug concentrations were measured over 9 timepoints collected between 0 and 24 hours of incubation by liquid-chromatography-coupled mass spectrometry (LC–MS); details: 2 µM
[11] = The drug is tested on Z-024 corresponding to pig gut metagenome with ENA study accession number: PRJEB37062 and ENA sample accession number: ERS12561823 for biotransformation under anaerobic condition. The drug concentrations were measured over 9 timepoints collected between 0 and 24 hours of incubation by liquid-chromatography-coupled mass spectrometry (LC–MS); details: 2 µM
[12] = The drug is tested on WLS-086 corresponding to human gut metagenome with ENA study accession number: PRJEB37062 and ENA sample accession number: ERS12561752 for biotransformation under anaerobic condition. The drug concentrations were measured over 9 timepoints collected between 0 and 24 hours of incubation by liquid-chromatography-coupled mass spectrometry (LC–MS); details: 2 µM
[13] = The drug is tested on WLS-038 corresponding to human gut metagenome with ENA study accession number: PRJEB37062 and ENA sample accession number: ERS12561745 for biotransformation under anaerobic condition. The drug concentrations were measured over 9 timepoints collected between 0 and 24 hours of incubation by liquid-chromatography-coupled mass spectrometry (LC–MS); details: 2 µM
[14] = The drug is tested on Z-017 corresponding to mouse gut metagenome with ENA study accession number: PRJEB37062 and ENA sample accession number: ERS12561816 for biotransformation under anaerobic condition. The drug concentrations were measured over 9 timepoints collected between 0 and 24 hours of incubation by liquid-chromatography-coupled mass spectrometry (LC–MS); details: 2 µM
[15] = human gut metagenome, 24 h, 2 µM; remark: listed apart in the source
[16] = human gut metagenome, 24 h, 2 µM; remark: listed apart in the source
[17] = human gut metagenome, 24 h, 2 µM; remark: listed apart in the source
[18] = The drug is tested on Z-010 corresponding to metagenome with ENA study accession number: PRJEB37062 and ENA sample accession number: ERS12561810 for biotransformation under anaerobic condition. The drug concentrations were measured over 9 timepoints collected between 0 and 24 hours of incubation by liquid-chromatography-coupled mass spectrometry (LC–MS); details: 2 µM
[19] = human gut metagenome, 24 h, 2 µM; remark: listed apart in the source
[20] = human gut metagenome, 24 h, 2 µM; remark: listed apart in the source
Note: call rule not given here.

SMILES: CC(C)(C(=O)O)c1ccc(C(O)CCCN2CCC(C(O)(c3ccccc3)c3ccccc3)CC2)cc1 (stereo not given) [FEXOFENADINE]
- Bacterial Biotransformation [1]: Compound NOT metabolized
- Bacterial Biotransformation [2]: Compound NOT metabolized
- Bacterial Biotransformation [3]: Compound NOT metabolized
- Bacterial Biotransformation [4]: Compound NOT metabolized
- Bacterial Biotransformation [5]: Compound NOT metabolized
- Bacterial Biotransformation [6]: Compound NOT metabolized
- Bacterial Biotransformation [7]: Compound NOT metabolized
- Bacterial Biotransformation [8]: Compound NOT metabolized
- Bacterial Biotransformation [9]: Compound NOT metabolized
- Bacterial Biotransformation [10]: Compound NOT metabolized
- Bacterial Biotransformation [11]: Compound metabolized
- Bacterial Biotransformation [12]: Compound NOT metabolized
- Bacterial Biotransformation [13]: Compound NOT metabolized
- Bacterial Biotransformation [14]: Compound NOT metabolized
- Bacterial Biotransformation [15]: Compound NOT metabolized
- Bacterial Biotransformation [16]: Compound NOT metabolized
- Bacterial Biotransformation [17]: Compound NOT metabolized
- Bacterial Biotransformation [18]: Compound NOT metabolized
- Bacterial Biotransformation [19]: Compound NOT metabolized
- Bacterial Biotransformation [20]: Compound NOT metabolized

SMILES: OCCN1CCN(CCCN2c3ccccc3Sc3ccc(C(F)(F)F)cc32)CC1 [FLUPHENAZINE]
- Bacterial Biotransformation [1]: Compound metabolized
- Bacterial Biotransformation [2]: Compound metabolized
- Bacterial Biotransformation [3]: Compound metabolized
- Bacterial Biotransformation [4]: Compound metabolized
- Bacterial Biotransformation [5]: Compound metabolized
- Bacterial Biotransformation [6]: Compound metabolized
- Bacterial Biotransformation [7]: Compound metabolized
- Bacterial Biotransformation [8]: Compound NOT metabolized
- Bacterial Biotransformation [9]: Compound metabolized
- Bacterial Biotransformation [10]: Compound metabolized
- Bacterial Biotransformation [11]: Compound metabolized
- Bacterial Biotransformation [12]: Compound metabolized
- Bacterial Biotransformation [13]: Compound metabolized
- Bacterial Biotransformation [14]: Compound NOT metabolized
- Bacterial Biotransformation [15]: Compound NOT metabolized
- Bacterial Biotransformation [16]: Compound metabolized
- Bacterial Biotransformation [17]: Compound metabolized
- Bacterial Biotransformation [18]: Compound metabolized
- Bacterial Biotransformation [19]: Compound metabolized
- Bacterial Biotransformation [20]: Compound metabolized

SMILES: COc1ccc2c3c1O[C@H]1C[C@@H](O)C=C[C@@]31CCN(C)C2 [GALANTAMINE]
- Bacterial Biotransformation [1]: Compound NOT metabolized
- Bacterial Biotransformation [2]: Compound NOT metabolized
- Bacterial Biotransformation [3]: Compound NOT metabolized
- Bacterial Biotransformation [4]: Compound metabolized
- Bacterial Biotransformation [5]: Compound NOT metabolized
- Bacterial Biotransformation [6]: Compound NOT metabolized
- Bacterial Biotransformation [7]: Compound NOT metabolized
- Bacterial Biotransformation [8]: Compound NOT metabolized
- Bacterial Biotransformation [9]: Compound metabolized
- Bacterial Biotransformation [10]: Compound metabolized
- Bacterial Biotransformation [11]: Compound NOT metabolized
- Bacterial Biotransformation [12]: Compound metabolized
- Bacterial Biotransformation [13]: Compound NOT metabolized
- Bacterial Biotransformation [14]: Compound NOT metabolized
- Bacterial Biotransformation [15]: Compound metabolized
- Bacterial Biotransformation [16]: Compound NOT metabolized
- Bacterial Biotransformation [17]: Compound NOT metabolized
- Bacterial Biotransformation [18]: Compound metabolized
- Bacterial Biotransformation [19]: Compound metabolized
- Bacterial Biotransformation [20]: Compound metabolized

SMILES: Cc1ccc(S(=O)(=O)NC(=O)NN2CC3CCCC3C2)cc1 (stereo not given) [GLICLAZIDE]
- Bacterial Biotransformation [1]: Compound metabolized
- Bacterial Biotransformation [2]: Compound metabolized
- Bacterial Biotransformation [3]: Compound metabolized
- Bacterial Biotransformation [4]: Compound metabolized
- Bacterial Biotransformation [5]: Compound metabolized
- Bacterial Biotransformation [6]: Compound metabolized
- Bacterial Biotransformation [7]: Compound metabolized
- Bacterial Biotransformation [8]: Compound metabolized
- Bacterial Biotransformation [9]: Compound metabolized
- Bacterial Biotransformation [10]: Compound metabolized
- Bacterial Biotransformation [11]: Compound metabolized
- Bacterial Biotransformation [12]: Compound metabolized
- Bacterial Biotransformation [13]: Compound metabolized
- Bacterial Biotransformation [14]: Compound NOT metabolized
- Bacterial Biotransformation [15]: Compound metabolized
- Bacterial Biotransformation [16]: Compound NOT metabolized
- Bacterial Biotransformation [17]: Compound metabolized
- Bacterial Biotransformation [18]: Compound metabolized
- Bacterial Biotransformation [19]: Compound metabolized
- Bacterial Biotransformation [20]: Compound metabolized

SMILES: COC1=CC(=O)C[C@@H](C)[C@]12Oc1c(Cl)c(OC)cc(OC)c1C2=O [GRISEOFULVIN]
- Bacterial Biotransformation [1]: Compound metabolized
- Bacterial Biotransformation [2]: Compound metabolized
- Bacterial Biotransformation [3]: Compound metabolized
- Bacterial Biotransformation [4]: Compound NOT metabolized
- Bacterial Biotransformation [5]: Compound metabolized
- Bacterial Biotransformation [6]: Compound metabolized
- Bacterial Biotransformation [7]: Compound metabolized
- Bacterial Biotransformation [8]: Compound metabolized
- Bacterial Biotransformation [9]: Compound metabolized
- Bacterial Biotransformation [10]: Compound metabolized
- Bacterial Biotransformation [11]: Compound metabolized
- Bacterial Biotransformation [12]: Compound metabolized
- Bacterial Biotransformation [13]: Compound metabolized
- Bacterial Biotransformation [14]: Compound metabolized
- Bacterial Biotransformation [15]: Compound metabolized
- Bacterial Biotransformation [16]: Compound metabolized
- Bacterial Biotransformation [17]: Compound metabolized
- Bacterial Biotransformation [18]: Compound metabolized
- Bacterial Biotransformation [19]: Compound metabolized
- Bacterial Biotransformation [20]: Compound metabolized

SMILES: N#Cc1ccc(C(c2ccc(C#N)cc2)n2cncn2)cc1 [LETROZOLE]
- Bacterial Biotransformation [1]: Compound NOT metabolized
- Bacterial Biotransformation [2]: Compound NOT metabolized
- Bacterial Biotransformation [3]: Compound NOT metabolized
- Bacterial Biotransformation [4]: Compound NOT metabolized
- Bacterial Biotransformation [5]: Compound NOT metabolized
- Bacterial Biotransformation [6]: Compound NOT metabolized
- Bacterial Biotransformation [7]: Compound NOT metabolized
- Bacterial Biotransformation [8]: Compound NOT metabolized
- Bacterial Biotransformation [9]: Compound NOT metabolized
- Bacterial Biotransformation [10]: Compound NOT metabolized
- Bacterial Biotransformation [11]: Compound metabolized
- Bacterial Biotransformation [12]: Compound NOT metabolized
- Bacterial Biotransformation [13]: Compound NOT metabolized
- Bacterial Biotransformation [14]: Compound NOT metabolized
- Bacterial Biotransformation [15]: Compound NOT metabolized
- Bacterial Biotransformation [16]: Compound NOT metabolized
- Bacterial Biotransformation [17]: Compound NOT metabolized
- Bacterial Biotransformation [18]: Compound NOT metabolized
- Bacterial Biotransformation [19]: Compound NOT metabolized
- Bacterial Biotransformation [20]: Compound NOT metabolized
